# Molecular target: T1, human PKCθ full length enzyme (Homo sapiens, UniProt Q04759)
# T1 construct: human PKCθ full length enzyme (Panvera Cat# P2996); purchased Panvera P2996
# Experiment: PKCθ IMAP assay (fluorescence polarization)
# Format: biochemical
# Settings: not given
# T1 sequence (Q04759 whole entry): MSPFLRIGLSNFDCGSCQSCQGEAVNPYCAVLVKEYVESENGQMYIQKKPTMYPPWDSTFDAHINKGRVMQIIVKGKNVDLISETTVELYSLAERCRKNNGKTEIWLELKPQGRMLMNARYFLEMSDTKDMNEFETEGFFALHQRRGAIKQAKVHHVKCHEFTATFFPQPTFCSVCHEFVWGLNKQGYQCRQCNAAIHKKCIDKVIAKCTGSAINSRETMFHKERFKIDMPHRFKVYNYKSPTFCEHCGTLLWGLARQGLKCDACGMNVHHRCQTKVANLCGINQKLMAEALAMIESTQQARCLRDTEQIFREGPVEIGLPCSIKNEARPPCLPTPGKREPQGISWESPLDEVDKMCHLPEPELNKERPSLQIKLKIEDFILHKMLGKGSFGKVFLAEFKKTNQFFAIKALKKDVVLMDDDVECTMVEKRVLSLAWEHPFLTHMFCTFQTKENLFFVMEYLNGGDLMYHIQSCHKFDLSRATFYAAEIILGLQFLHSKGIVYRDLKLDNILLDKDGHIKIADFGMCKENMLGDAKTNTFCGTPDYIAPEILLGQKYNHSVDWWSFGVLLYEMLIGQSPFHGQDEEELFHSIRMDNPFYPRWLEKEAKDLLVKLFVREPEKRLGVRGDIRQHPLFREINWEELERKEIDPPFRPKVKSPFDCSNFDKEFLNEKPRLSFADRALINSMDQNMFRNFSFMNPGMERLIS
row,SMILES,IC50
1,"Cc1c(Nc2c(C#N)cncc2-c2cc3cc(CN4CCN(C)CC4)ccc3s2)ccc2[nH]ccc12 [Compound 521, 4-[(4-methyl-1H-indol-5-yl)amino]-5-{5-[(4-methylpiperazin-1-yl)methyl]-1-benzothien-2-yl}nicotinonitrile]",0.001 µM

# Same assay, conditions: human PKCθ full length enzyme, IMAP; average value; read-out: IC50 PKCθ IMAP
row,SMILES,IC50
1,"COc1ccc(-c2cncc(C#N)c2Nc2cnc3[nH]ccc3c2)cc1OC [Compound 488, 5-(3,4-dimethoxyphenyl)-4-(1H-pyrrolo[2,3-b]pyridin-5-ylamino)nicotinonitrile]",2.02 µM
2,"Cc1c(Nc2c(C#N)cncc2-c2ccc(OCCCCCl)cc2)ccc2[nH]ccc12 [Compound 490, 5-[4-(4-chlorobutoxy)phenyl]-4-[(4-methyl-1H-indol-5-yl)amino]nicotinonitrile]",0.051 µM
3,"Cc1c(Nc2c(C#N)cncc2-c2ccc(OCCCCN3CCN(C)CC3)cc2)ccc2[nH]ccc12 [Compound 491, 4-[(4-methyl-1H-indol-5-yl)amino]-5-{4-[4-(4-methylpiperazin-1-yl)butoxy]phenyl}nicotinonitrile]",0.015 µM
4,"COCCOc1ccc(-c2cncc(C#N)c2Nc2cnc3[nH]ccc3c2Cl)cc1OC [Compound 492, 4-[(4-chloro-1H-pyrrolo[2,3-b]pyridin-5-yl)amino]-5-[3-methoxy-4-(2-methoxyethoxy)phenyl]nicotinonitrile]",0.061 µM
5,"COc1ccc(-c2cncc(C#N)c2Nc2cc(Cl)c3[nH]ccc3c2C)cc1OC [Compound 498, 4-[(7-chloro-4-methyl-1H-indol-5-yl)amino]-5-(3,4-dimethoxyphenyl)nicotinonitrile]",0.016 µM
6,"Cc1c(Nc2c(C#N)cncc2-c2cccc(OCCCCCl)c2)ccc2[nH]ccc12 [Compound 501, 5-[3-(4-chlorobutoxy)phenyl]-4-[(4-methyl-1H-indol-5-yl)amino]nicotinonitrile]",0.089 µM
7,"Cc1c(Nc2c(C#N)cncc2-c2cccc(OCCCCN3CCN(C)CC3)c2)ccc2[nH]ccc12 [Compound 502, 4-[(4-methyl-1H-indol-5-yl)amino]-5-{3-[4-(4-methylpiperazin-1-yl)butoxy]phenyl}nicotinonitrile]",0.021 µM
8,"Cc1c(Nc2c(C#N)cncc2-c2cncnc2)ccc2[nH]ccc12 [Compound 509, 4-[(4-methyl-1H-indol-5-yl)amino]-5-pyrimidin-5-ylnicotinonitrile]",0.261 µM
9,"Cc1c(Nc2c(C#N)cncc2-c2cnc(N3CCCCC3)nc2)ccc2[nH]ccc12 [Compound 510, 4-[(4-methyl-1H-indol-5-yl)amino]-5-(2-piperidin-1-ylpyrimidin-5-yl)nicotinonitrile]",0.3 µM
10,"Cc1c(Nc2c(C#N)cncc2-c2cnc(N3CCCC3)nc2)ccc2[nH]ccc12 [Compound 512, 4-[(4-methyl-1H-indol-5-yl)amino]-5-(2-pyrrolidin-1-ylpyrimidin-5-yl)nicotinonitrile]",0.215 µM
11,"Cc1c(Nc2c(C#N)cncc2-c2cnc(N(C)C)nc2)ccc2[nH]ccc12 [Compound 513, 5-[2-(dimethylamino)pyrimidin-5-yl]-4-[(4-methyl-1H-indol-5-yl)amino]nicotinonitrile]",0.125 µM
12,"Cc1c(Nc2c(C#N)cncc2-c2cc3ccccc3s2)ccc2[nH]ccc12 [Compound 514, 5-(1-benzothien-2-yl)-4-[(4-methyl-1H-indol-5-yl)amino]nicotinonitrile]",0.023 µM
13,"Cc1c(Nc2c(C#N)cncc2-c2csc(C=O)c2)ccc2[nH]ccc12 [Compound 516, 5-(5-formyl-3-thienyl)-4-[(4-methyl-1H-indol-5-yl)amino]nicotinonitrile]",0.005 µM
14,"Cc1c(Nc2c(C#N)cncc2-c2cccnc2)ccc2[nH]ccc12 [Compound 519, 4-[(4-methyl-1H-indol-5-yl)amino]-3,3′-bipyridine-5-carbonitrile]",0.036 µM
15,"COc1ccc(-c2cncc(C#N)c2Nc2cnc3[nH]ccc3c2Cl)cc1OC [Compound 522, 4-[(4-chloro-1H-pyrrolo[2,3-b]pyridin-5-yl)amino]-5-(3,4-dimethoxyphenyl)nicotinonitrile]",0.02 µM
16,"COc1ccc(-c2c[n+]([O-])cc(C#N)c2Nc2ccc3[nH]ccc3c2)cc1OC [Compound 523, 5-(3,4-dimethoxyphenyl)-4-(1H-indol-5-ylamino)nicotinonitrile 1-oxide]",0.737 µM
17,"COc1ccc(-c2cncc(C#N)c2N[C@H]2CC[C@H](N)CC2)cc1OC [Compound 524, 4-[(trans-4-aminocyclohexyl)amino]-5-(3,4-dimethoxyphenyl)nicotinonitrile]",4.1 µM
18,"CCCCNC(=O)Nc1ccc(-c2cncc(C#N)c2Nc2ccc3[nH]ccc3c2C)cc1 [Compound 525, 1-butyl-3-(4-{5-cyano-4-[(4-methyl-1H-indol-5-yl)amino]pyridin-3-yl}phenyl)urea]",0.007 µM
19,"COC(=O)Nc1ccc(-c2cncc(C#N)c2Nc2ccc3[nH]ccc3c2C)cc1 [Compound 526, methyl (4-{5-cyano-4-[(4-methyl-1H-indol-5-yl)amino]pyridin-3-yl}phenyl)carbamate]",0.01 µM
20,"Cc1c(Nc2c(C#N)cncc2-c2ccc(NC(=O)OCc3ccccc3)c(F)c2)ccc2[nH]ccc12 [Compound 527, benzyl (4-{5-cyano-4-[(4-methyl-1H-indol-5-yl)amino]pyridin-3-yl}-2-fluorophenyl)carbamate]",0.027 µM
21,"COc1ccc(COC(=O)Nc2ccc(-c3cncc(C#N)c3Nc3ccc4[nH]ccc4c3C)cc2F)cc1 [Compound 528, 4-methoxybenzyl (4-{5-cyano-4-[(4-methyl-1H-indol-5-yl)amino]pyridin-3-yl}-2-fluorophenyl)carbamate]",0.04 µM
22,"COc1ccc(-c2cncc(C#N)c2Nc2ccc(C)c3cc[nH]c23)cc1OC [Compound 530, 5-(3,4-dimethoxyphenyl)-4-[(4-methyl-1H-indol-7-yl)amino]nicotinonitrile]",0.179 µM

# Results, then the compound that gave them:
row,IC50,SMILES
1,0.016 µM,"Cc1c(Nc2c(C#N)cncc2-c2ccc(CN3CCS(=O)(=O)CC3)o2)ccc2[nH]ccc12 [Compound 487, 5-{5-[(1,1-dioxidothiomorpholin-4-yl)methyl]-2-furyl}-4-[(4-methyl-1H-indol-5-yl)amino]nicotinonitrile]"
2,0.033 µM,"Cc1cc2[nH]ccc2cc1Nc1c(C#N)cncc1-c1ccc(OCCN2CCN(C)CC2)cc1 [Compound 496, 4-[(6-methyl-1H-indol-5-yl)amino]-5-{4-[2-(4-methylpiperazin-1-yl)ethoxy]phenyl}nicotinonitrile]"
3,0.007 µM,"Cc1cc2[nH]ccc2cc1Nc1c(C#N)cncc1-c1cc2cc(CN3CCN(C)CC3)ccc2o1 [Compound 497, 4-[(6-methyl-1H-indol-5-yl)amino]-5-{5-[(4-methylpiperazin-1-yl)methyl]-1-benzofuran-2-yl}nicotinonitrile]"
4,0.003 µM,"Cc1cc2[nH]ccc2cc1Nc1c(C#N)cncc1-c1cc2cc(CO)ccc2o1 [Compound 499, 5-[5-(hydroxymethyl)-1-benzofuran-2-yl]-4-[(6-methyl-1H-indol-5-yl)amino]nicotinonitrile]"
5,0.005 µM,"CCN(CC)Cc1ccc2oc(-c3cncc(C#N)c3Nc3cc4cc[nH]c4cc3C)cc2c1 [Compound 500, 5-{5-[(diethylamino)methyl]-1-benzofuran-2-yl}-4-[(6-methyl-1H-indol-5-yl)amino]nicotinonitrile]"
6,0.012 µM,"Cc1c(Nc2c(C#N)cncc2-c2coc(CN3CCN(C)CC3)c2)ccc2[nH]ccc12 [Compound 503, 4-[(4-methyl-1H-indol-5-yl)amino]-5-{5-[(4-methylpiperazin-1-yl)methyl]-3-furyl}nicotinonitrile]"
7,0.084 µM,"Cc1cc2[nH]ccc2cc1Nc1c(C#N)cncc1-c1ccc(OCCN2CCCCC2)cc1 [Compound 504, 4-[(6-methyl-1H-indol-5-yl)amino]-5-[4-(2-piperidin-1-ylethoxy)phenyl]nicotinonitrile]"
8,0.076 µM,"Cc1cc2[nH]ccc2cc1Nc1c(C#N)cncc1-c1ccc(OCCN2CCC(O)CC2)cc1 [Compound 505, 5-{4-[2-(4-hydroxypiperidin-1-yl)ethoxy]phenyl}-4-[(6-methyl-1H-indol-5-yl)amino]nicotinonitrile]"
9,0.083 µM,"Cc1cc2[nH]ccc2cc1Nc1c(C#N)cncc1-c1ccc(OCCN2CCC(N3CCCC3)CC2)cc1 [Compound 506, 4-[(6-methyl-1H-indol-5-yl)amino]-5-{4-[2-(4-pyrrolidin-1-ylpiperidin-1-yl)ethoxy]phenyl}nicotinonitrile]"
10,0.03 µM,"Cc1c(Nc2c(C#N)cncc2-c2ccc(N3CCOCC3)nc2)ccc2[nH]ccc12 [Compound 507, 4-[(4-methyl-1H-indol-5-yl)amino]-6′-morpholin-4-yl-3,3′-bipyridine-5-carbonitrile]"
11,0.078 µM,"Cc1c(Nc2c(C#N)cncc2-c2ccc(N3CCCCC3)nc2)ccc2[nH]ccc12 [Compound 508, 4-[(4-methyl-1H-indol-5-yl)amino]-6′-piperidin-1-yl-3,3′-bipyridine-5-carbonitrile]"
12,0.083 µM,"Cc1c(Nc2c(C#N)cncc2-c2cnc(N3CCOCC3)nc2)ccc2[nH]ccc12 [Compound 511, 4-[(4-methyl-1H-indol-5-yl)amino]-5-(2-morpholin-4-ylpyrimidin-5-yl)nicotinonitrile]"
13,0.008 µM,"Cc1c(Nc2c(C#N)cncc2-c2cc(C=O)co2)ccc2[nH]ccc12 [Compound 517, 5-(4-formyl-2-furyl)-4-[(4-methyl-1H-indol-5-yl)amino]nicotinonitrile]"
14,0.005 µM,"Cc1c(Nc2c(C#N)cncc2-c2csc(CN3CCN(C)CC3)c2)ccc2[nH]ccc12 [Compound 518, 4-[(4-methyl-1H-indol-5-yl)amino]-5-{5-[(4-methylpiperazin-1-yl)methyl]-3-thienyl}nicotinonitrile]"
15,0.073 µM,"CN1CCN(CCOc2ccc(-c3cncc(C#N)c3Nc3ccc4[nH]ccc4c3)cc2)CC1 [Compound 520, 4-(1H-indol-5-ylamino)-5-{4-[2-(4-methylpiperazin-1-yl)ethoxy]phenyl}nicotinonitrile]"
16,0.002 µM,"Cc1c(Nc2c(C#N)cncc2-c2cc3cc(CN4CCN(C)CC4)ccc3o2)cc(Cl)c2[nH]ccc12 [Compound 529, 4-[(7-chloro-4-methyl-1H-indol-5-yl)amino]-5-{5-[(4-methylpiperazin-1-yl)methyl]-1-benzofuran-2-yl}nicotinonitrile]"

# From patent US7781591B2, “Substituted 3-cyanopyridines as protein kinase inhibitors” (Wyeth LLC, priority 2006, dated 2010)
